Assay results reported in ChEMBL document CHEMBL1148315, “Photoaffinity labeling of the anionic sites in Caco-2 cells mediating saturable transport of hydrophilic cations ranitidine and famotidine” (2004).

How the values were obtained:
Format in all cases: functional, Homo sapiens
[1] = test system: Caco-2; assay: Ability to increase the transepithelial electrical resistance across Caco-2 cell monolayer at 200 uM concentration
[2] = test system: Caco-2; assay: Inhibition of irreversible increase in transepithelial electrical resistance across Caco-2 cell monolayer by the compound in the presence of 5 mM of famotidine
[3] = test system: Caco-2; assay: Inhibition of Ranitidine transport across Caco-2 cell monolayer by the compound (200 uM) After photoactivation at 254 nM
[4] = test system: Caco-2; assay: Inhibition of apical to basolateral transport of Ranitidine (100 uM) across Caco-2 cell monolayer in the presence of 300 uM of compound

[N-]=[N+]=Nc1ccc(C(=O)NCCSCc2csc(NC(=N)N)n2)cc1
Increase [1]: 120%

N=C(N)Nc1nc(CSCCC(=N)NS(N)(=O)=O)cs1.[N-]=[N+]=Nc1ccc(C(=O)NCCSCc2csc(NC(=N)N)n2)cc1
Inhibition [2]: 35%

CNC(=C[N+](=O)[O-])NCCSCc1ccc(CN(C)C)o1.[N-]=[N+]=Nc1ccc(C(=O)NCCSCc2csc(NC(=N)N)n2)cc1
Inhibition [3]: 35% | Inhibition [4]: 40%
